Measured values from ChEMBL document CHEMBL1275281, “Synthesis, anti-inflammatory evaluation and docking studies of some new fluorinated fused quinazolines” (2010).

How the values were obtained:
Rattus norvegicus [1] = assay: Antiinflammatory activity in Wistar rat assessed as inhibition of carrageenan-induced paw edema at 10 mg/kg, po administered 1 hr before carrageenan challenge and measured 4 hrs post carrageenan challenge relative to untreated control; format: functional
Rattus norvegicus [2] = assay: Antiinflammatory activity in Wistar rat assessed as inhibition of carrageenan-induced paw edema at 10 mg/kg, po administered 1 hr before carrageenan challenge and measured 2 hrs post carrageenan challenge relative to untreated control; format: functional

Row | SMILES | inhibition in vivo at 10 mg/kg (Rattus norvegicus [1]) [%] | inhibition in vivo at 10 mg/kg (Rattus norvegicus [2]) [%]
1 | NC(=O)c1c(-c2ccccc2)cc(C(F)(F)F)c2c1N=C(c1ccc(O)cc1)N1CCN=C21 | 60 | 61
2 | NC(=O)c1c(C(F)(F)F)cc(-c2ccccc2)c2c1N=C(c1cccs1)N1CCN=C21 | 33 | 34
3 | NC(=O)c1c(-c2ccccc2)cc(C(F)(F)F)c2c1N=C(c1cccs1)N1CCN=C21 | 24 | 25
4 | NC(=O)c1c(C(F)(F)F)cc(-c2ccccc2)c2c1N=C(c1ccco1)N1CCN=C21 | 28 | 29
5 | COc1ccc2c(c1)c(CC(=O)O)c(C)n2C(=O)c1ccc(Cl)cc1 [INDOMETHACIN] | 75 | 79
6 | NC(=O)c1c(-c2ccccc2)cc(C(F)(F)F)c2c1N=C(c1ccco1)N1CCN=C21 | 30 | 31
7 | NC(=O)c1c(C(F)(F)F)cc(-c2ccccc2)c2c1N=C(c1ccc(O)cc1)N1CCN=C21 | 57 | 59
